In patent publication US7135466B2 (Kirin Beer Kabushiki Kaisha, priority 1999, dated 2006):

The compounds below were run against T1, c-kit (Homo sapiens, UniProt P10721) (assay: Inhibitory activity against c-kit autophosphorylation (MO7e cells, h-SCF)). Conditions: MO7e cells, h-SCF stimulation; read-out: c-kit IC50.
T1 construct: MO7e (human megakaryocytic leukemia cell line) which had been arrested for 20 hr; endogenous in cells; host or cells: MO7e human megakaryocytic leukemia cell line
Format: cell-based
Outline: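 MO7e cells, arrested for 20 hr, were pretreated with test compound in DMSO for 1 hr and then stimulated with 50 ng/ml h-SCF for 5 min before lysis. Lysates were captured on immobilized anti-phosphotyrosine PY-20, probed with anti-c-kit antibody and HRP anti-rabbit IgG, and read colorimetrically at 450 nm.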

T1 sequence (P10721 26-976): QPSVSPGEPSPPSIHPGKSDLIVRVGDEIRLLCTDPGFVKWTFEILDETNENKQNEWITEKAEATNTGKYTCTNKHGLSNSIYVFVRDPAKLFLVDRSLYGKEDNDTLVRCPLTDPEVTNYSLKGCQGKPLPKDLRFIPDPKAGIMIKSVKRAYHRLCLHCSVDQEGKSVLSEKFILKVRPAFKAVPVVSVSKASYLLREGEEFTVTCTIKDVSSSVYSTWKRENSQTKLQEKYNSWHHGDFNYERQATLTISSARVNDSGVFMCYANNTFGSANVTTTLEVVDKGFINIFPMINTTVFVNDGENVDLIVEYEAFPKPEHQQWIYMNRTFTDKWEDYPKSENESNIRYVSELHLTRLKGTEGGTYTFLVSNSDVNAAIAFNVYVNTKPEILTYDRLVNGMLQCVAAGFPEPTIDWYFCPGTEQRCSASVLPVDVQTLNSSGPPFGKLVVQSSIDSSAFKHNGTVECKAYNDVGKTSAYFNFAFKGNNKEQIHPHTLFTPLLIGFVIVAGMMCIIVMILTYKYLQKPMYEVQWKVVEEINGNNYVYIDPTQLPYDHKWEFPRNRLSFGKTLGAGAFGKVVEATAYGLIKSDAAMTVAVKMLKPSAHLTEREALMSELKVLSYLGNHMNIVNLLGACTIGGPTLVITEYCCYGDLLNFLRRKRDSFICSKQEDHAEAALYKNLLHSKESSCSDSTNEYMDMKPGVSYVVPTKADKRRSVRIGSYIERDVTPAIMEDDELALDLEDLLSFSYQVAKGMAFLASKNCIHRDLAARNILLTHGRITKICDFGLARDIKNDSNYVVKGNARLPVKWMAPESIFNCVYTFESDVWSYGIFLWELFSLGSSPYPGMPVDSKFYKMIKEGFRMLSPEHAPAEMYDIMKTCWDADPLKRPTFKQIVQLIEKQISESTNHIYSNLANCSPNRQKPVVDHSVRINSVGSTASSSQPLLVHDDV

| SMILES | IC50 [nM] |
| --- | --- |
| CCOc1ccc(C(=O)NC(=S)Nc2ccc(Oc3ccnc4cc(OC)c(OC)cc34)c(Cl)c2)cc1 [Example 992, N-{3-Chloro-4-[(6,7-dimethoxy-4-quinolyl)oxy]phenyl}-N′-(4-ethoxybenzoyl)thiourea] | 766 |
| COc1cc2nccc(Oc3ccc(NC(=S)NC(=O)c4ccc(F)cc4F)cc3)c2cc1OC [Example 1006, N-(2,4-Difluorobenzoyl)-N′-{4-[(6,7-dimethoxy-4-quinolyl)oxy]phenyl}thiourea] | 181 |
| COc1cc2nccc(Oc3ccc(NC(=S)NC(=O)c4c(F)cccc4F)cc3)c2cc1OC [Example 1007, N-(2,6-Difluorobenzoyl)-N′-{4-[(6,7-dimethoxy-4-quinolyl)oxy]phenyl}thiourea] | 616 |
| COc1ccc(C(=O)NC(=S)Nc2ccc(Oc3ccnc4cc(OC)c(OC)cc34)cc2)cc1OC [Example 1010, N-(3,4-Dimethoxybenzoyl)-N′-{4-[(6,7-dimethoxy-4-quinolyl)oxy]phenyl}thiourea] | 78 |
| COc1cc2nccc(Oc3ccc(NC(=S)NC(=O)CCc4ccccc4)c(F)c3)c2cc1OC [Example 1026, N-{4-[(6,7-Dimethoxy-4-quinolyl)oxy]-2-fluorophenyl}-N′-(3-phenylpropanoyl)thiourea] | 652 |
| COc1cc2nccc(Oc3ccc(NC(=S)NC(=O)c4ccco4)cc3)c2cc1OC [Example 1033, N-{4-[(6,7-Dimethoxy-4-quinolyl)oxy]phenyl}-N′-(2-furylcarbonyl)thiourea] | 177 |
| COc1cc2nccc(Oc3ccc(NC(=S)NC(=O)c4ccsc4)cc3)c2cc1OC [Example 1034, N-{4-[(6,7-Dimethoxy-4-quinolyl)oxy]phenyl}-N′-(3-thienylcarbonyl)thiourea] | 378 |

Further lines, results first:

| IC50 [nM] | SMILES |
| --- | --- |
| 264 | COc1cc2ncnc(Oc3ccc(NC(=S)NC(=O)c4ccc(F)cc4)cc3)c2cc1OC [Example 986, N-{4-[(6,7-Dimethoxy-4-quinazolinyl)oxy]phenyl}-N′-(4-fluorobenzoyl)thiourea] |
| 481 | CCOc1ccc(C(=O)NC(=S)Nc2ccc(Oc3ccnc4cc(OC)c(OC)cc34)c(F)c2)cc1 [Example 990, N-{4-[(6,7-Dimethoxy-4-quinolyl)oxy]-3-fluorophenyl}-N′-(4-ethoxybenzoyl)thiourea] |
| 357 | COc1cc2nccc(Oc3ccc(NC(=S)NC(=O)c4ccc(Cl)cc4Cl)cc3)c2cc1OC [Example 1008, N-(2,4-Dichlorobenzoyl)-N′-{4-[(6,7-dimethoxy-4-quinolyl)oxy]phenyl}thiourea] |
| 195 | COc1cc2nccc(Oc3ccc(NC(=S)NC(=O)c4cc(Cl)cc(Cl)c4)cc3F)c2cc1OC [Example 1015, N-(3,5-Dichlorobenzoyl)-N′-{4-[(6,7-dimethoxy-4-quinolyl)oxy]-3-fluorophenyl}thiourea] |
| 161 | COc1cc2nccc(Oc3ccc(NC(=S)NC(=O)CCC4CCCC4)c(F)c3)c2cc1OC [Example 1027, N-(3-Cyclopentylpropanoyl)-N′-{4-[(6,7-dimethoxy-4-quinolyl)oxy]-2-fluorophenyl}thiourea] |

Same assay, conditions: Mo7e, figure in parentheses in −( ); at 1000 nM

| SMILES | inhibition at 1 µM [%] |
| --- | --- |
| COc1cc2nccc(Oc3ccc(NC(=S)NC(=O)c4ccc(I)cc4)cc3Cl)c2cc1OC [Example 981, N-{3-Chloro-4-[(6,7-dimethoxy-4-quinolyl)oxy]phenyl}-N′-(4-iodobenzoyl)thiourea] | 47 |
| COc1cc2nccc(Oc3ccc(NC(=S)NC(=O)c4ccc([N+](=O)[O-])cc4)cc3Cl)c2cc1OC [Example 982, N-{3-Chloro-4-[(6,7-dimethoxy-4-quinolyl)oxy]phenyl}-N′-(4-nitrobenzoyl)thiourea] | 18 |
| COc1ccc(C(=O)NC(=S)Nc2ccc(Oc3ccnc4cc(OC)c(OC)cc34)c(Cl)c2)cc1 [Example 983, N-{3-Chloro-4-[(6,7-dimethoxy-4-quinolyl)oxy]phenyl}-N′-(4-methoxybenzoyl)thiourea] | 39 |
| COc1cc2ncnc(Oc3ccc(NC(=S)NC(=O)c4ccc(C)cc4)cc3)c2cc1OC [Example 984, N-{4-[(6,7-Dimethoxy-4-quinazolinyl)oxy]phenyl}-N′-(4-methylbenzoyl)thiourea] | 30 |
| COc1ccc(C(=O)NC(=S)Nc2ccc(Oc3ncnc4cc(OC)c(OC)cc34)cc2)cc1 [Example 988, N-{4-[(6,7-Dimethoxy-4-quinazolinyl)oxy]phenyl}-N′-(4-methoxybenzoyl)thiourea] | 33 |
| CCc1ccc(C(=O)NC(=S)Nc2ccc(Oc3ccnc4cc(OC)c(OC)cc34)cc2F)cc1 [Example 993, N-{4-[(6,7-Dimethoxy-4-quinolyl)oxy]-2-fluorophenyl}-N′-(4-ethylbenzoyl)thiourea] | 35 |
| COc1cc2nccc(Oc3ccc(NC(=S)NC(=O)c4ccc(Cl)cc4Cl)c(F)c3)c2cc1OC [Example 1011, N-(2,4-Dichlorobenzoyl)-N′-{4-[(6,7-dimethoxy-4-quinolyl)oxy]-2-fluorophenyl}thiourea] | 20 |
| COc1cc2nccc(Oc3ccc(NC(=S)NC(=O)c4ccco4)c(F)c3)c2cc1OC [Example 1035, N-{4-[(6,7-Dimethoxy-4-quinolyl)oxy]-2-fluorophenyl}-N′-(2-furylcarbonyl)thiourea] | 17 |
| COc1cc2nccc(Oc3ccc(NC(=S)NC(=O)c4ccsc4)c(F)c3)c2cc1OC [Example 1036, N-{4-[(6,7-Dimethoxy-4-quinolyl)oxy]-2-fluorophenyl}-N′-(3-thienylcarbonyl)thiourea] | 29 |

The next lines start with the values.

| inhibition at 1 µM [%] | SMILES |
| --- | --- |
| 31 | COc1cc2ncnc(Oc3ccc(NC(=S)NC(=O)c4ccc(Cl)cc4)cc3)c2cc1OC [Example 985, N-(4-Chlorobenzoyl)-N′-{4-[(6,7-dimethoxy-4-quinazolinyl)oxy]phenyl}thiourea] |
| 32 | COc1cc2ncnc(Oc3ccc(NC(=S)NC(=O)c4ccc([N+](=O)[O-])cc4)cc3)c2cc1OC [Example 987, N-{4-[(6,7-Dimethoxy-4-quinazolinyl)oxy]phenyl}-N′-(4-nitrobenzoyl)thiourea] |
| 24 | COc1cc2nccc(Oc3ccc(NC(=S)NC(=O)c4c(Cl)cccc4Cl)c(F)c3)c2cc1OC [Example 1012, N-(2,6-Dichlorobenzoyl)-N′-{4-[(6,7-dimethoxy-4-quinolyl)oxy]-2-fluorophenyl}thiourea] |
| 22 | COc1cc2nccc(Oc3ccc(NC(=S)NC(=O)c4ccc(F)cc4F)cc3F)c2cc1OC [Example 1013, N-(2,4-Difluorobenzoyl)-N′-{4-[(6,7-dimethoxy-4-quinolyl)oxy]-3-fluorophenyl}thiourea] |
| 30 | COc1cc2nccc(Oc3ccc(NC(=S)NC(=O)c4ccc(Cl)cc4Cl)cc3F)c2cc1OC [Example 1014, N-(2,4-Dichlorobenzoyl)-N′-{4-[(6,7-dimethoxy-4-quinolyl)oxy]-3-fluorophenyl}thiourea] |
| 11 | COc1cc2nccc(Oc3ccc(NC(=S)NC(=O)c4c(F)cccc4F)cc3Cl)c2cc1OC [Example 1020, N-{3-Chloro-4-[(6,7-dimethoxy-4-quinolyl)oxy]phenyl}-N′-(2,6-difluorobenzoyl)thiourea] |
| 38 | COc1cc2ncnc(Oc3ccc(NC(=S)NC(=O)c4ccc(F)cc4F)cc3)c2cc1OC [Example 1021, N-(2,4-Difluorobenzoyl)-N′-{4-[(6,7-dimethoxy-4-quinazolinyl)oxy]phenyl}thiourea] |
